Reference: publication PMC11284600, “Many human pharmaceuticals are weak inhibitors of the cytochrome P450 system in rainbow trout (Oncorhynchus mykiss) liver S9 fractions” (Frontiers in Toxicology, 2024)
Structures can show the parent of a compound that is named as a salt.

How the values were obtained:
[1] = tested on: CYP1A-like ethoxyresorufin O-deethylase (EROD) activity; assay: in vitro; details: both, Christophersen, Bornhoeved, rainbow trout (Oncorhynchus mykiss); for inhibition at 10 min: pH 7.8
Protocol: (§1) Commercially available rainbow trout (O. mykiss) liver S9 fractions were used as the enzyme source for the in vitro P450 inhibition assays (RTL-S9, total protein concentration 20 mg/mL, Primacyt Cell Culture Technology GmbH).
(§2) The inhibitory impacts of the test substances toward the rainbow trout liver P450 system in vitro were assessed based on EROD and BFCOD as the marker reactions for CYP1A- and CYP3A-like isoenzyme activities, respectively. […] In this study, the EROD (CYP1A) and BFCOD (CYP3A) activities were determined using 0.5 mg/mL RT-S9 (total protein) concentration and 1 or 2 mM NADPH, respectively. […] All incubations were performed in duplicate in a total volume of 100 µL of potassium phosphate buffer (0.1 M, pH 7.8), at 11°C ± 1°C on a thermostated orbital shaker (LLG Labware). The reactions were terminated by the addition of 37.5 μL of the quenching solution (0.5 M Trizma base/acetonitrile 20:80, v/v). […] The quantitation of the metabolites (resorufin or HFC) was based on linear regression of the respective standards prepared in the potassium phosphate buffer. Negative control incubations were performed separately without the marker substrate, without cofactors, and without RT-S9 to ensure that the detected fluorescence signals arise from the metabolic conversion of the marker substrates (ER or BFC) into their respective metabolites (resorufin or HFC, respectively).
(§3) In this study, the preincubation was performed using three different protocols A-C (Table 2). In the first protocol, the test substance (each separately at six different concentrations between 0.01 and 500 µM) and RT-S9 were preincubated without any cofactors, and the marker reaction was initiated by the addition of the marker substrate (ER or BFC) and NADPH (Protocol A). This enabled the determination of the inhibitory impact of the parent form of the test substance on the respective marker activity. In the second protocol, the test substance and RT-S9 were preincubated together with NADPH, and the marker reaction was initiated by the addition of the marker substrate (Protocol B). In this manner, the test substance could undergo P450 metabolism already during the preincubation step, which may reduce its concentration and thus the inhibitory impact toward the marker reactions, or result in the formation of reactive or inhibitory metabolites, which typically increases the inhibitory impact compared with the parent form (Protocol A). […] In this manner, the test substance could undergo both P450 and phase II metabolism already during the preincubation step, which may likewise reduce its concentration and inhibitory impact toward the marker reactions, and even help eliminate the possible reactive metabolites via glutathione conjugation. […] Additionally, positive control incubations of the marker substrates (ER or BFC) without the test substance (zero inhibitor concentration) were included in each series to determine the basal EROD or BFCOD activity in RT-S9.
(§4) The residual solvent concentration was kept constant at all inhibitor concentrations, including zero, to eliminate its impact on the IC50 concentrations derived from the empirical data. The IC50 shifts for Protocols B and C were calculated according to Eq. 2: IC50 shift=IC50,Protocol A/IC50,Protocol B or Protocol C (2)
(§5) In this manner, the impact of the test substance’s own metabolism (during the preincubation step) on the inhibitory impact could be evaluated.

CYP1A-like EROD activity = assay: in vitro; details: both, Christophersen, Bornhoeved, rainbow trout (Oncorhynchus mykiss)
Protocol: as §1, §2, §3, §4, §5

[2] = tested on: CYP1A-like ethoxyresorufin O-deethylase (EROD) activity in rainbow trout liver S9 fractions; assay: in vitro
Protocol: as §1, §2, §3, §4, §5

[3] = Unbound fraction in RT-S9 by rapid equilibrium dialysis; format: in vitro ADME, rainbow trout (Oncorhynchus mykiss); details: rainbow trout liver S9 fractions (RT-S9), 10 µM test substance, 1 mg/mL RT-S9, pH 7.8, 11°C, n = 3, read-out: Unbound fraction (fU,RT-S9)
Protocol: The unbound (free) fractions of the test substances in RT-S9 (fU,RT-S9) were determined using rapid equilibrium dialysis assay (RED, Thermo Fisher Scientific), which exploits two-compartment inserts separated by a dialysis membrane with a molecular weight cut-off of 8,000 Da. In the RED assay, each test pharmaceutical (10 μM) was incubated in triplicate with RT-S9 (1 mg/mL) in 50 mM potassium phosphate buffer (pH 7.8) in a total volume of 300 µL on one side of the membrane (protein-containing chamber), and 350 μL of the plain phosphate buffer on the other side (protein-free chamber). To reach equilibrium, the samples were incubated on an orbital shaker (C25KC Incubator shaker, New Brunswick Scientific, 120 rpm) at 11°C for 4 h. Next, 50 µL aliquots were collected from both chambers separately and diluted by adding 50 µL of the plain buffer (to the protein-containing sample) or 50 μL of 1 mg/mL RT-S9 in the buffer (to the protein-free sample). Finally, the RT-S9 protein was precipitated by the addition of acetonitrile (+200 μL) to both samples separately, followed by incubation on ice for 30 min and centrifugation (16100 g, 15 min). The test substance concentrations in the supernatants of both samples were determined using liquid chromatography. The instrumentation and the analytical methods used for chromatographic analyses are described in detail in the Supplementary Table S2. The unbound fractions of the test substances in RT-S9 (fU,RT-S9) were calculated according to Eq. 3: fU,RT−S9=1− PC−PF/PC (3) where [PC] and [PF] are the test substance concentrations in the samples collected from protein-containing and protein-free chambers, respectively. To account for the test substance’s binding to the RT-S9, the nominal IC50 values were corrected for unbound fraction (fU,RT-S9) according to Eq. 4: Unbound IC50=Nominal IC50×fU,RT−S9 (4)

[4] = biological target: T1, CYP3A-like 7-benzyloxy-4-trifluoromethylcoumarin O-debenzylase (BFCOD) activity in rainbow trout liver S9 fractions (Oncorhynchus mykiss, UniProt O42563); assay: BFCOD inhibition in RT-S9 (IC50 shift assay); details: within the tested concentration range
T1 sequence (O42563 1-518): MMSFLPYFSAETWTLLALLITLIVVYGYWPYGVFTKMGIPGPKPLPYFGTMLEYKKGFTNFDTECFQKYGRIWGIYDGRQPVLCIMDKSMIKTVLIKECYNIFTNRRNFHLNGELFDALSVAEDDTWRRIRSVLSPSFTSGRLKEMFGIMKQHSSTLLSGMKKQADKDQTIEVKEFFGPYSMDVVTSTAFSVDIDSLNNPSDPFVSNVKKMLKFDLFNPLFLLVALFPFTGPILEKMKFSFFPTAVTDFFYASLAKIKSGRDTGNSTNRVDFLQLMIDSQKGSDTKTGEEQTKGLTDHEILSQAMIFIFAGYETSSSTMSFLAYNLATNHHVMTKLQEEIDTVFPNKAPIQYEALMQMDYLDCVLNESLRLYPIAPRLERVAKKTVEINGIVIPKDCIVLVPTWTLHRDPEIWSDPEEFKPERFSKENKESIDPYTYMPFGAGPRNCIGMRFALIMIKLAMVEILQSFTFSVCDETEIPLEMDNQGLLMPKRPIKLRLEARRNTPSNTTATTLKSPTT
Protocol: as §1, §2, §3, §4, §5

[5] = biological target: T2, CYP3A-like BFCOD activity (Oncorhynchus mykiss, UniProt O42563); assay: BFCOD inhibition in RT-S9 (IC50 shift assay); details: both, Christophersen, Bornhoeved, rainbow trout (Oncorhynchus mykiss), s9, pH 7.8
T2 sequence (O42563 1-518): T1 sequence (O42563 1-518)
Protocol: as §1, §2, §3, §4, §5

[6] = parameters: method as in Chemaxon; details: pH 7.8; (e) empirical; ref Chemaxon; cited from earlier work
[7] = parameters: method as in PubChem; details: (e) empirical; ref PubChem; cited from earlier work
Human CYP1A = details: ref Drugbank unless otherwise stated (Dragovic et al., 2013; Conard and Ober 1984; Niwa et al., 2005); cited from earlier work
[8] = pH 7.8, EROD inhibition in RT-S9, Nominal IC50

Row | Compound | inhibition at 10 min [1] [%] | IC50 at 10 min [1, 8] [µM] | IC50 at 10 min ([1]; pH 7.8, EROD inhibition in RT-S9, Unbound IC50) [µM] | IC50 shift at 10 min (CYP1A-like EROD activity; s9, pH 7.8, EROD inhibition in RT-S9, IC50 shift (A/B)) | IC50 shift at 10 min (CYP1A-like EROD activity; s9, pH 7.8, EROD inhibition in RT-S9, IC50 shift (A/C)) | EROD inhibition in RT-S9 (in words) [2] | fraction unbound at 4 h, 10 µM [3] | BFCOD inhibition in RT-S9 (in words) [4] | IC50 at 20 min [5] [µM] | Water solubility [6] | LogKOW [7] | Human CYP1A interactions: substrate status (Human CYP1A) | IC50 [2] [µM]
1 | CNCC[C@@H](Oc1ccccc1C)c1ccccc1 [Atomoxetine, atomoxetine hydrochloride] | ≤ 50 | > 100 | 20 ± 4 | 0.9 ± 0.1 | 1.1 | inhibited selectively only EROD activity | 0.2 ± 0.03 | did not significantly inhibit | > 25 | 27.8 (e) mg/mL |  |  | 
2 | CN(C)CCc1c[nH]c2ccc(C[C@H]3COC(=O)N3)cc12 [Zolmitriptan, zolmitriptan] |  |  |  |  |  |  |  | did not significantly inhibit |  |  | 1.792 (e) | Substrate | 
3 | O=C(NCC1CCCCN1)c1cc(OCC(F)(F)F)ccc1OCC(F)(F)F (stereo not drawn) [Flecainide, flecainide acetate] | ≤ 50 | > 100 |  |  |  | inhibited selectively only EROD activity | 0.36 ± 0.03 | did not significantly inhibit | > 25 |  |  | Substrate | 82 ± 14
